Tested on: leup operon (leupeptin BGC) promoter in K. oxytoca ATCC 8724
Assay: GFP-based transcriptional reporter for the leup operon
Format: cell-based, Klebsiella oxytoca
Settings: carbohydrate screen, M9 + casamino acid + 0.4% indicated sugar, 30 °C, 24 h; for GFP fluorescence, GFP Strain + Media: leup GFP reporter strain; for GFP fluorescence, WT + Media: wildtype K. oxytoca without reporter (background)
Source text: We previously examined a panel of 84 clinical K. oxytoca isolates (including recently renamed Klebsiella michiganensis isolates) for the presence of either the leup operon or npsB, an NRPS of the tilimycin/tilivalline gene cluster. […] While the roles of tilivalline and tilimycin in hemorrhagic colitis are well studied[8],[9], the operon for leupeptin biosynthesis is “silent” in K. oxytoca under typical laboratory culture conditions (i.e., leupeptin production is undetectable). Therefore, our study commenced by exploring growth conditions required to trigger leupeptin biosynthesis in K. oxytoca. To achieve this, we generated a green fluorescent protein (GFP)-based reporter system to monitor leup transcription in K. oxytoca ATCC 8724 (recently renamed as Klebsiella michiganensis (ATCC 8724), Fig. 1a). We utilized λ-red recombineering techniques[38] to replace the first biosynthetic gene (leupA) of the leupeptin BGC with a GFP-spectinomycin resistance cassette. […] Consequently, conditions that elicit transcription of the leupeptin BGC can be monitored by GFP fluorescence intensity.
5 mL of the leupeptin reporter strain was cultured aerobically in 10 g/L of LB (Becton Dickinson), yeast extract, GAM (HiMedia Laboratories), horse liver extract (HiMedia Laboratories), malt extract (VWR), meat extract (HiMedia Laboratories), YPD (Dot Scienticifc), brain heart infusion (Becton Dickinson), porcine mucin (Sigma-Aldrich, M1778), clostridial (Becton Dickinson), TSB (VWR), or casamino acid supplemented (5 g/L, VWR) M9 minimal salts (MP Biomedicals) at 30 °C for 24 h at 250 rpm. Cultures were lysed via sonication, centrifuged, and 150 µL of the supernatants were aliquoted into black well clear bottom 96 well plates. GFP fluorescence measurements were performed on a BioTek Synergy H1 plate reader with an excitation wavelength of 488 nm and an emission wavelength of 525 nm. For the carbohydrate screen, the leupeptin reporter strain was cultured in M9 minimal medium (MPbio) supplemented with casamino acid (5 g/L, VWR) and 0.4% indicated sugar aerobically at 30 °C for 24 h at 250 rpm.

Row | SMILES | GFP fluorescence, GFP Strain + Media | GFP fluorescence, WT + Media
1 | N[C@H]1C(O)O[C@H](CO)[C@@H](O)[C@@H]1O (stereo partly drawn) [Glucosamine] | 9974 RFU | 5479 RFU
2 | CC(=O)N[C@@H]1[C@@H](O)[C@H](O)[C@@H](CO)O[C@H]1O [GlcNAc] | 9678 RFU | 5235 RFU
3 | O=C[C@H](O)[C@@H](O)[C@@H](O)[C@H](O)CO [Galactose] | 9159 RFU | 6849 RFU
